Paper doi:10.1101/2024.08.25.609621 (bioRxiv, 2024)
Read-outs that look alike come from different tables or passages of the source.

Tests used:
[1] = biological target: SARS-CoV-2 NSP3 macrodomain (Mac1) (Severe acute respiratory syndrome coronavirus 2, UniProt P0DTD1); experiment: biochemical; format: binding
[2] = biological target: SARS-CoV-2 NSP3 macrodomain (Mac1), P43 crystal form (Severe acute respiratory syndrome coronavirus 2, UniProt P0DTD1); format: binding; conditions: for Isomers modeled: stereoisomer(s) of ligand modeled in Mac1 crystal structure
[3] = Single dose, concentration 200 μM, read-out: Average % competition
[4] = preliminary screen, compound at 200 μM, mean of 3-4 technical replicates, read-out: % competition in HTRF assay
[5] = ligand modeling in Mac1 crystal soak
[6] = SARS CoV-2 macrodomain HTRF assay
[7] = SARS CoV-2 macrodomain HTRF assay, dose-response, read-out: IC50
[8] = SARS CoV-2 macrodomain HTRF assay, dose-response, read-out: Ki
[9] = Single dose, concentration 200 μM, read-out: SARS CoV-2 macrodomain HTRF assay: Average % competition
[10] = from SARS CoV-2 macrodomain HTRF assay

Compound | inhibition at 200 µM [1, 3] | inhibition at 200 µM [1, 4] | PanDDA run, TFA/DMSO background map: 1-BDC ([2]; crystal soak 10 mM) | PanDDA run, TFA/DMSO background map: Hit ([2]; crystal soak 10 mM) | Number of isomers bound [2, 5] | other results
CCC(Nc1ncnc2[nH]ccc12)C(C)O (stereo not drawn) [AVI-3635] | 54% | 54% | 0.08 | TRUE | 1 | PanDDA run, TFA/DMSO background map: 1-BDC ([2]; soak concentration 10 mM): 0.11; PanDDA run, TFA/DMSO background map: Hit ([2]; soak concentration 10 mM): TRUE
OCC(CC(F)(F)F)Nc1ncnc2[nH]ccc12 (stereo not drawn) [AVI-3637] | 50% | 50% | – | – | 1 | PanDDA run, TFA/DMSO background map: 1-BDC ([2]; soak concentration 10 mM): 0.21; PanDDA run, TFA/DMSO background map: Hit ([2]; soak concentration 10 mM): TRUE
OCC(Nc1ncnc2[nH]ccc12)C1CCC1 (stereo not drawn) [AVI-3638] | 77% | 77% | 0.1 | TRUE | 1 | –
O=C(O)C(F)(F)F.O[C@H]1CCC[C@@H]1Nc1ncnc2[nH]ccc12 [AVI-3639] | 74% | 74% | 0.09 | TRUE | 1 | –
OCC(CC1CCC1)Nc1ncnc2[nH]ccc12 (stereo not drawn) [AVI-3641] | 32% | 32% | 0.11 | TRUE | 1 | –
OCC(CC(O)c1ccccc1)Nc1ncnc2[nH]ccc12 (stereo not drawn) [AVI-3642] | < 10% | < 10% | 0.17 | TRUE | 1 | –
CCC(CO)Nc1ncnc2[nH]ccc12 (stereo not drawn) [AVI-3643] | 63% | 63% | 0.14 | TRUE | 1 | –
C#CCC(CO)Nc1ncnc2[nH]ccc12 (stereo not drawn) [AVI-3644] | 43% | 43% | 0.11 | TRUE | 1 | –
OC1CCCN(c2ncnc3[nH]ccc23)C1 (stereo not drawn) [AVI-3646] | 20% | 20% | 0.13 | TRUE | 1 | –
CC(C)(C)CC(CO)Nc1ncnc2[nH]ccc12 (stereo not drawn) [AVI-3648] | 27% | 27% | 0.16 | TRUE | 1 | –
OCC(Nc1ncnc2[nH]ccc12)C1CCCC1 (stereo not drawn) [AVI-3649] | 68% | 68% | 0.11 | TRUE | 1 | –
OCC(Cc1c[nH]c2ccccc12)Nc1ncnc2[nH]ccc12 (stereo not drawn) [AVI-3650] | 71% | 71% | 0.11 | TRUE | 2 | Isomers modeled [2]: R,S
OCC(Nc1ncnc2[nH]ccc12)C1CC1 (stereo not drawn) [AVI-3651] | – | – | 0.16 | TRUE | 1 | Ligand efficiency (binding enery per heavy atom) [1, 6]: 0.38; IC50 [1, 7]: 48 µM; Ki [1, 8]: 45 µM
OC(c1ccccc1)C1CCCN1c1ncnc2[nH]ccc12 (stereo not drawn) [AVI-3652] | – | 35% | 0.16 | TRUE | 1 | inhibition at 200 µM [1, 9]: 35%
CC1CCN(c2ncnc3[nH]ccc23)C1CO (stereo not drawn) [AVI-3655] | – | 75% | 0.18 | TRUE | 1 | inhibition at 200 µM [1, 9]: 75%
CO[C@@H]1C[C@H](CO)N(c2ncnc3[nH]ccc23)C1 [AVI-3656] | – | 41% | – | – | 1 | inhibition at 200 µM [1, 9]: 41%
Cn1cc(CC(CO)Nc2ncnc3[nH]ccc23)cn1 (stereo not drawn) [AVI-3657] | 24% | 24% | 0.09 | TRUE | 1 | –
OCC(CC1OCCO1)Nc1ncnc2[nH]ccc12 (stereo not drawn) [AVI-3658] | 11% | 11% | – | – | 1 | –
OCC(Nc1ncnc2[nH]ccc12)c1ccco1 (stereo not drawn) [AVI-3659] | 55% | 55% | 0.08 | TRUE | 1 | –
OCC(CC1CCCO1)Nc1ncnc2[nH]ccc12 (stereo not drawn) [AVI-3660] | 18% | 18% | 0.17 | TRUE | 1 | –
OC1CCN(c2ncnc3[nH]ccc23)C1 (stereo not drawn) [AVI-3661] | – | 11% | 0.12 | TRUE | – | inhibition at 200 µM [1, 9]: 11%; Number of isomers bound ([2]; ligand modeling in Mac1 crystal structure): 1
OCC(CC1CC1)Nc1ncnc2[nH]ccc12 (stereo not drawn) [AVI-3662] | 44% | 44% | 0.09 | TRUE | 1 | –
O[C@H]1CC[C@@H]2CCN(c3ncnc4[nH]ccc34)[C@@H]21 [AVI-3664] | – | – | 0.15 | TRUE | 1 | IC50 ([1]; dose-response, read-out: SARS CoV-2 macrodomain HTRF assay: IC50): 28 µM; Ki ([1]; dose-response, read-out: SARS CoV-2 macrodomain HTRF assay: Ki): 26 µM; Ligand efficiency (binding enery per heavy atom) [1, 10]: 0.35; Isomers modeled [2]: SRS
OCC(CC1CCOC1)Nc1ncnc2[nH]ccc12 (stereo not drawn) [AVI-3665] | 11% | 11% | 0.15 | TRUE | 1 | –
CCC(O)[C@H]1CCCN1c1ncnc2[nH]ccc12 (stereo partly drawn) [AVI-3666] | – | – | – | – | 1 | fold decrease in binding affinity compared to AVI-4062 [1]: ~ 4 fold; Ligand efficiency (binding enery per heavy atom) [1, 10]: 0.34
CCC(Nc1ncnc2[nH]ccc12)C(C)(C)O (stereo not drawn) [AVI-3667] | 51% | 51% | 0.07 | TRUE | 1 | –
CC(c1ccccc1)C(CO)Nc1ncnc2[nH]ccc12 (stereo not drawn) [AVI-3669] | – | – | 0.09 | TRUE | 1 | fold more potent / increased binding affinity than AVI-313 parent ([1]; HTRF IC50 compared with AVI-313): > 10 fold; Ligand efficiency (binding enery per heavy atom) [1, 6]: 0.33; Ki [1, 8]: 8.1 µM; Ligand efficiency ([1]; binding energy per heavy atom): 0.33; IC50 ([1]; read-out: HTRF IC50): 8.7 µM
O=C(O)C(F)(F)F.OCC1(Nc2ncnc3[nH]ccc23)CCC1 [AVI-3670] | – | – | 0.12 | TRUE | 1 | Ligand efficiency (binding enery per heavy atom) [1, 6]: 0.38; IC50 [1, 7]: 39 µM; Ki [1, 8]: 36 µM; Isomers modeled [2]: achiral,achiral
CN(C)CC(CO)Nc1ncnc2[nH]ccc12 (stereo not drawn) [AVI-3671] | < 10% | < 10% | 0.13 | TRUE | 1 | –
